ChEMBL document CHEMBL1201862, “PubChem BioAssay data set” (2004)
Calls of active or inactive are those of the source.

Key:
[1] = molecular target: T1, RNA-binding protein pos-1 (Caenorhabditis elegans, UniProt G5EF15); assay: inhibitors of POS-1/mex-3 RNA binding, dose response, biochemical, fluorescence polarization (AID 1964);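 note: purified POS-1 fused to maltose binding protein made in E. coli; potency of compounds blocking POS-1 binding to fluorescent RNA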
T1 sequence (G5EF15 whole entry): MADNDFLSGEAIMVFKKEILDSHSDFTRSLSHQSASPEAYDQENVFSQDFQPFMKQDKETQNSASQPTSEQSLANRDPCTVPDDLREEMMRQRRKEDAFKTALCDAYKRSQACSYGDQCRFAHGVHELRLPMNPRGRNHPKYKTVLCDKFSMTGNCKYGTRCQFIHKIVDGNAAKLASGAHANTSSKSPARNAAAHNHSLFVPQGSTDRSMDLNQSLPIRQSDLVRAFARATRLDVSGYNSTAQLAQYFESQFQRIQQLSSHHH

Nonstructural protein 1 = Nonstructural protein 1 (Influenza A virus, UniProt Q194T2); assay type: functional, Influenza A virus (A/California/07/2009(H1N1))
Nonstructural protein 1, sequence (Q194T2 whole entry): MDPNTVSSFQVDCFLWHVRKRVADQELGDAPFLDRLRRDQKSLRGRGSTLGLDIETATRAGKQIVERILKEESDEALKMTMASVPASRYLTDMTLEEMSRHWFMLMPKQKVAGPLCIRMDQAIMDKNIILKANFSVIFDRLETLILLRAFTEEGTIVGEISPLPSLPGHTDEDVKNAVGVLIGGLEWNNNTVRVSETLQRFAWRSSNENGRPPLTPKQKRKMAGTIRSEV

[2] = molecular target: T2, Zinc finger protein mex-5 (Caenorhabditis elegans, UniProt Q9XUB2); assay: MEX-5/TCR-2 RNA interaction inhibitors, dose response, biochemical, C. elegans, fluorescence polarization (AID 1960)
T2 sequence (Q9XUB2 whole entry): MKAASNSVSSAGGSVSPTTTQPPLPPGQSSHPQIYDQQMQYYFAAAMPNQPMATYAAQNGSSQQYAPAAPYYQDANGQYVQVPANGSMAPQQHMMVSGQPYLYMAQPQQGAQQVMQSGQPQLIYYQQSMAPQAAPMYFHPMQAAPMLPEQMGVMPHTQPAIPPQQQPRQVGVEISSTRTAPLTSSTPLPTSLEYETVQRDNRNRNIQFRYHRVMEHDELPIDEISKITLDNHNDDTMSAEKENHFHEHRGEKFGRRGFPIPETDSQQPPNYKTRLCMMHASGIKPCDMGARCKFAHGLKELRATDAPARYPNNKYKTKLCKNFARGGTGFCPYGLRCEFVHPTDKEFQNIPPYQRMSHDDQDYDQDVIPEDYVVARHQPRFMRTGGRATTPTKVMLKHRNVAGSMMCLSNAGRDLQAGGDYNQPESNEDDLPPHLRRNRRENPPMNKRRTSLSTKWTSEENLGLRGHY

SUMO-activating enzyme [3] = molecular target: T3, SUMO-activating enzyme (Homo sapiens, UniProt Q9UBT2); assay: inhibitors of in vitro SUMOylation cascade, primary screen, biochemical, HTRF, uHTS (AID 2006); assay type: protein-complex assay
T3 sequence (Q9UBE0 whole entry): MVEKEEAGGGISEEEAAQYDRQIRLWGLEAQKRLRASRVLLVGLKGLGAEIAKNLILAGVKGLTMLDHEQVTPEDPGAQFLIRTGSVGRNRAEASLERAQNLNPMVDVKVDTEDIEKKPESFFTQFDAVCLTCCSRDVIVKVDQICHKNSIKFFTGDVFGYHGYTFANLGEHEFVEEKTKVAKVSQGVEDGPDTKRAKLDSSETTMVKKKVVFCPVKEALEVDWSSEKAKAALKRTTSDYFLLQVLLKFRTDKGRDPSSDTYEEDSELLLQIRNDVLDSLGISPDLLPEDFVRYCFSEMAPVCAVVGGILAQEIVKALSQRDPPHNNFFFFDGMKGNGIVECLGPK
T3 sequence (Q9UBT2 whole entry): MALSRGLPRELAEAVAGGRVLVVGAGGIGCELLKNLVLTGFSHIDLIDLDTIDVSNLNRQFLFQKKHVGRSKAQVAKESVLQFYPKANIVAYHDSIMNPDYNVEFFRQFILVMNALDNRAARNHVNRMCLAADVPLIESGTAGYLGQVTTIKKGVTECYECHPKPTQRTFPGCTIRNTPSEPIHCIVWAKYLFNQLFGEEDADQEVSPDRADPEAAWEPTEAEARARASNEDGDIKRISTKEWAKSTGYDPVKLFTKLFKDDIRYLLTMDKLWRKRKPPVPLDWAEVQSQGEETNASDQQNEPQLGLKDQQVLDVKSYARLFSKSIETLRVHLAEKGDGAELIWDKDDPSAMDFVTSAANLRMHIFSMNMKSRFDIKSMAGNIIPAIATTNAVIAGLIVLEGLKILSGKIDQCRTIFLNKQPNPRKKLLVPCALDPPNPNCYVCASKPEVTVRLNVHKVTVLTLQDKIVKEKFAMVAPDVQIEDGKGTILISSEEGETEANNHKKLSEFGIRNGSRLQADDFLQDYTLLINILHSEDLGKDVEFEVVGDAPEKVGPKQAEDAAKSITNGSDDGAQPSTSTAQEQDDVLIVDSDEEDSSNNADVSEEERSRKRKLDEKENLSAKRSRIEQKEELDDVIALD

SUMO-activating enzyme [4] = molecular target: T3, SUMO-activating enzyme; assay: SUMOylation inhibitor hit validation, confirmation, SUMOylation inhibitor project, biochemical, AlphaScreen (AID 2018); assay type: functional
[5] = molecular target: T4, Heat shock factor protein 1 (Mus musculus, UniProt P38532); assay: inhibition of MG132-induced HSE-luciferase signal, confirmation, cell-based, NIH3T3, luminescence, dose retest (AID 2382); assay type: functional;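 note: NIH3T3 fibroblasts with HSF1-driven luciferase reporter stressed by proteasome inhibitor MG132; luminescence from HSF1-driven luciferase expression after 8 hours of MG132 stress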
T4 sequence (P38532 whole entry): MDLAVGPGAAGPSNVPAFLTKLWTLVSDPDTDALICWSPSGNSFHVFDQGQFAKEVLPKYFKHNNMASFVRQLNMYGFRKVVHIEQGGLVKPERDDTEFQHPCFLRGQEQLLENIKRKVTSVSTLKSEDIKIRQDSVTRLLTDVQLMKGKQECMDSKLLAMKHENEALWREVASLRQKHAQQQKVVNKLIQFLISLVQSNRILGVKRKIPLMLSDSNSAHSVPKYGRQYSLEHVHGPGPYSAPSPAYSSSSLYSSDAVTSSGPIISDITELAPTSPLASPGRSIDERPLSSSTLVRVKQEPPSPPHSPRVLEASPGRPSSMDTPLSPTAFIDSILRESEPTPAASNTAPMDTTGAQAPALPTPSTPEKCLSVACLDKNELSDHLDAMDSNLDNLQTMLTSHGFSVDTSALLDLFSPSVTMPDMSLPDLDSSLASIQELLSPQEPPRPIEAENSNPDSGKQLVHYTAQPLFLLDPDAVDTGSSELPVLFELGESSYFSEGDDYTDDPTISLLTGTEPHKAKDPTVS

Aminopeptidase N = molecular target: T5, Aminopeptidase N (Plasmodium falciparum FcB1/Columbia, UniProt O96935); assay: P. falciparum M1AAP inhibitors, biochemical, fluorogenic H-Leu-NHMec substrate, 1536-well (AID 1445); design: species or system Plasmodium falciparum 3D7, 3D7
T5 sequence (O96935 whole entry): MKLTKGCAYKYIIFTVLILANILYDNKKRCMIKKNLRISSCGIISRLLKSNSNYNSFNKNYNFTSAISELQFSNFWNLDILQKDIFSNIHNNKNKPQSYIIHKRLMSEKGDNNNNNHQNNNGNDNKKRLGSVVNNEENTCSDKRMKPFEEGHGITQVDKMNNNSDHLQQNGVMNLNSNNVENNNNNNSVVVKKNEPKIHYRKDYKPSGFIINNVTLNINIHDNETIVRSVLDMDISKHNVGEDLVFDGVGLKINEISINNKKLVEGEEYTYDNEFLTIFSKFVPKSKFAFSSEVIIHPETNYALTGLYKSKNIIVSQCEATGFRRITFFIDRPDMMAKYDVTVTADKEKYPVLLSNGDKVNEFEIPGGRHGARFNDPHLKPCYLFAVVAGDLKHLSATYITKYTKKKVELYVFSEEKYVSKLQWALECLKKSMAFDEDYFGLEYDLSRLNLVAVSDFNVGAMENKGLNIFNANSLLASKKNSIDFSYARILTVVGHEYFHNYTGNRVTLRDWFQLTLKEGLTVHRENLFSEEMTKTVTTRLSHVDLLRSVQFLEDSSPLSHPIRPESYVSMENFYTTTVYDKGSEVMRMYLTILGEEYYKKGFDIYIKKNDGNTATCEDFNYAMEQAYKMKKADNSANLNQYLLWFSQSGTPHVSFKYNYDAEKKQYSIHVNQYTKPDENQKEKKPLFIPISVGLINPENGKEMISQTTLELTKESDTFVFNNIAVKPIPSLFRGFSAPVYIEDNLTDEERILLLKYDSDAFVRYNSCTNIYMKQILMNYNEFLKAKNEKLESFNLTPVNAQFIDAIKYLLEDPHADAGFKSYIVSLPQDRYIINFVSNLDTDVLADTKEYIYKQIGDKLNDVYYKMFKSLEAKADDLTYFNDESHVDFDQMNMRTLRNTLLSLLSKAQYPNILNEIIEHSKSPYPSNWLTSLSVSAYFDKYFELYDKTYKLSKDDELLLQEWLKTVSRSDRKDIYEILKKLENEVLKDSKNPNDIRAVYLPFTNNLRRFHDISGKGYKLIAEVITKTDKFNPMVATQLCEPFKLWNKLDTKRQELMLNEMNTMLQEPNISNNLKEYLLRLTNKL

[6] = inhibition of K1F phage lysis, E. coli UTI89, bacterial capsule biogenesis inhibitors, alamar blue (AID 488966); assay type: functional
[7] = molecular target: Voltage-dependent T-type calcium channel subunit alpha-1H (Homo sapiens, UniProt O95180); assay: Cav3.2 T-type channel inhibitors, cell-based, synthetic library set 1, calcium flux (AID 493022); assay type: functional
Voltage-dependent T-type calcium channel subunit alpha-1H, sequence (O95180 whole entry): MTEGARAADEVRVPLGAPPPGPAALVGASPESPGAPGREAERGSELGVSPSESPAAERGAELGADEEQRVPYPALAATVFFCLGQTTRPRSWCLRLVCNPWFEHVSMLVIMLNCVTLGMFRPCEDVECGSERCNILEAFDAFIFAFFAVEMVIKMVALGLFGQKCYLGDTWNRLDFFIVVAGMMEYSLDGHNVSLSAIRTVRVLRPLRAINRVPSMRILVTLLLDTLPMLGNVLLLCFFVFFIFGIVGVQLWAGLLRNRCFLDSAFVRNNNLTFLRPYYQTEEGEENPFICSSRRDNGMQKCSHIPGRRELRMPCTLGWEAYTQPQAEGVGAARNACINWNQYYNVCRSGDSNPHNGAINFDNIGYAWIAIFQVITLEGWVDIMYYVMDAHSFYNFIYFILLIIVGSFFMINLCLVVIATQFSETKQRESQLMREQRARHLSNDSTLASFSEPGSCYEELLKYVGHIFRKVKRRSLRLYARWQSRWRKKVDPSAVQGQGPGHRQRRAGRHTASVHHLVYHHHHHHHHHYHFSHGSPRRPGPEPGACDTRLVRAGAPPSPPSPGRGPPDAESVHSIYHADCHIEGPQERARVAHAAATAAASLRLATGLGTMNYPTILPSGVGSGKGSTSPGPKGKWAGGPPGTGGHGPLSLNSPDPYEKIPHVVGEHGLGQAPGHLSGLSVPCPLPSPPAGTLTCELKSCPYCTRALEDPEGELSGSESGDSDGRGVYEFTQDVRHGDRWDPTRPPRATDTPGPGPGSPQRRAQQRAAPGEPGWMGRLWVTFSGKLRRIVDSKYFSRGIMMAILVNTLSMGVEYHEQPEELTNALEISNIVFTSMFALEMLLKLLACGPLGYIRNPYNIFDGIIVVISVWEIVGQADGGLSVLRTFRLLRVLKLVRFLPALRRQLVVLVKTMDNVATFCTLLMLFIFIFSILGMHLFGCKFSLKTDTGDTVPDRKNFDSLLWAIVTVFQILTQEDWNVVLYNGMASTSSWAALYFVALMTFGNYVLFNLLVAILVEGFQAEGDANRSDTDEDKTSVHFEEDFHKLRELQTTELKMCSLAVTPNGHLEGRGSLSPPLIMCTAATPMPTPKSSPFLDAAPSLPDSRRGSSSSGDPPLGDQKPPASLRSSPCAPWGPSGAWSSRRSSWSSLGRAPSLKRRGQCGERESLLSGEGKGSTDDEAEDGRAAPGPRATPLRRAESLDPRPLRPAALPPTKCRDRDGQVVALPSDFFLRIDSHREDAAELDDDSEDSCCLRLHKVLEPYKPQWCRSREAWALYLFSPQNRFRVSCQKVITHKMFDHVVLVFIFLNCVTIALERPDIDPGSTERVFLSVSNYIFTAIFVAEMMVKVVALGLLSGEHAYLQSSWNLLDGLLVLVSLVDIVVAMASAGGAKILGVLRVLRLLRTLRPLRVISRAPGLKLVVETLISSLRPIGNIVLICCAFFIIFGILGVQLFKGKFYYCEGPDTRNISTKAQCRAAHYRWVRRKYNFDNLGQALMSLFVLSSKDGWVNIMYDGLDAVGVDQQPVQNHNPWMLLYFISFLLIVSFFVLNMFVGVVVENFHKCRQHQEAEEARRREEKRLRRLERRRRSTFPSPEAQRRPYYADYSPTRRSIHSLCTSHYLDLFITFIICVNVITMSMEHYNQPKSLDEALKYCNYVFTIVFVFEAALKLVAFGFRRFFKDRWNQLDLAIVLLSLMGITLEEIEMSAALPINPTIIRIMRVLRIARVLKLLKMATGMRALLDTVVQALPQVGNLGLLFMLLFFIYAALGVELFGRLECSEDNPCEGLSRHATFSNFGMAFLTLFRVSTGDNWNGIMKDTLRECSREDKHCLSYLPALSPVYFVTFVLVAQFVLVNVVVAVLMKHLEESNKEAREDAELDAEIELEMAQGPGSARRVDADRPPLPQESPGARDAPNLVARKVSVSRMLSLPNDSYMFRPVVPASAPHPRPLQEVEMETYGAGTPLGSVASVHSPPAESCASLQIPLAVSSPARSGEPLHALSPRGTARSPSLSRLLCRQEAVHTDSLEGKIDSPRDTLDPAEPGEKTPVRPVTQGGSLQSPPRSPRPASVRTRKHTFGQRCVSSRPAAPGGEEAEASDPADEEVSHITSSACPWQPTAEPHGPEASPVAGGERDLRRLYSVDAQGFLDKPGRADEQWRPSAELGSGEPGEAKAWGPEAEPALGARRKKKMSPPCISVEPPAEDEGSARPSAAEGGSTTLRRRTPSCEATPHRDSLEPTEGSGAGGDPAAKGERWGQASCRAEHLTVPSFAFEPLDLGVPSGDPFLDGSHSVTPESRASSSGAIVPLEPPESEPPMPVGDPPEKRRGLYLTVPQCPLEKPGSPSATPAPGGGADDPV

Streptococcus = assay: Group A Streptococcus viability loss, dose response, counter-screen for streptokinase expression inhibitor project, luminescence, BacTiterGlo (AID 1915); assay type: functional, organism-based;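 note: potency for reduction of bacterial viability or growth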
Vero = assay: cells; assay type: functional; conditions: Chlorocebus sabaeus
[8] = molecular target: C-C chemokine receptor type 6 (Homo sapiens, UniProt P51684); assay: CCR6 receptor antagonists, dose response, cell-based, luminescent beta-arrestin readout (AID 504728); assay type: functional
C-C chemokine receptor type 6, sequence (P51684 whole entry): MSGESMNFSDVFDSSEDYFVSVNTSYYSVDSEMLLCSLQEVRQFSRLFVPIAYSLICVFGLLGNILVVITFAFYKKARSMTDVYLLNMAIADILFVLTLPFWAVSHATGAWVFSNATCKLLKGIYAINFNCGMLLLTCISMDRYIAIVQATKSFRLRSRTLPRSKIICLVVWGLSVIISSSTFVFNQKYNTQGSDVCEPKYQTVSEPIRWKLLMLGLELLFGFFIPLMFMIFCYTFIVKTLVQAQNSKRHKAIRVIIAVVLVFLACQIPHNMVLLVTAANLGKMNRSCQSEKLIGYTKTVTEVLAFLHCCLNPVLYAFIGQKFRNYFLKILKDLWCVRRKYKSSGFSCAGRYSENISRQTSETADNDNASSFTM

[9] = tested on: Streptococcus sp. 'group A'; assay: growth inhibition of control SK(-) GAS strain, dose response, counter-screen for streptokinase expression inhibitor project, luminescence, kanamycin, BacTiterGlo, confirmation (AID 1900); assay type: functional, organism-based
[10] = inhibitors of intracellular T. cruzi replication, confirmation, NIH3T3 host cells, beta-gal luminescence (AID 2044); assay type: functional, cell-based;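 note: intracellular parasites grown in NIH/3T3 mouse fibroblasts as host cells; luminescent beta-galactosidase reporter signal from transgenic T. cruzi replicating inside host cells; inhibitors lower the luminescence signal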
Beta-galactosidase = Beta-galactosidase (Escherichia coli, UniProt Q8VNN2); assay: beta-galactosidase enzyme inhibitors and activators, dose response, artefact control for CCR6 antagonist project, biochemical, E. coli enzyme, set 3 (AID 504712); assay type: functional
Beta-galactosidase, sequence (Q8VNN2 whole entry): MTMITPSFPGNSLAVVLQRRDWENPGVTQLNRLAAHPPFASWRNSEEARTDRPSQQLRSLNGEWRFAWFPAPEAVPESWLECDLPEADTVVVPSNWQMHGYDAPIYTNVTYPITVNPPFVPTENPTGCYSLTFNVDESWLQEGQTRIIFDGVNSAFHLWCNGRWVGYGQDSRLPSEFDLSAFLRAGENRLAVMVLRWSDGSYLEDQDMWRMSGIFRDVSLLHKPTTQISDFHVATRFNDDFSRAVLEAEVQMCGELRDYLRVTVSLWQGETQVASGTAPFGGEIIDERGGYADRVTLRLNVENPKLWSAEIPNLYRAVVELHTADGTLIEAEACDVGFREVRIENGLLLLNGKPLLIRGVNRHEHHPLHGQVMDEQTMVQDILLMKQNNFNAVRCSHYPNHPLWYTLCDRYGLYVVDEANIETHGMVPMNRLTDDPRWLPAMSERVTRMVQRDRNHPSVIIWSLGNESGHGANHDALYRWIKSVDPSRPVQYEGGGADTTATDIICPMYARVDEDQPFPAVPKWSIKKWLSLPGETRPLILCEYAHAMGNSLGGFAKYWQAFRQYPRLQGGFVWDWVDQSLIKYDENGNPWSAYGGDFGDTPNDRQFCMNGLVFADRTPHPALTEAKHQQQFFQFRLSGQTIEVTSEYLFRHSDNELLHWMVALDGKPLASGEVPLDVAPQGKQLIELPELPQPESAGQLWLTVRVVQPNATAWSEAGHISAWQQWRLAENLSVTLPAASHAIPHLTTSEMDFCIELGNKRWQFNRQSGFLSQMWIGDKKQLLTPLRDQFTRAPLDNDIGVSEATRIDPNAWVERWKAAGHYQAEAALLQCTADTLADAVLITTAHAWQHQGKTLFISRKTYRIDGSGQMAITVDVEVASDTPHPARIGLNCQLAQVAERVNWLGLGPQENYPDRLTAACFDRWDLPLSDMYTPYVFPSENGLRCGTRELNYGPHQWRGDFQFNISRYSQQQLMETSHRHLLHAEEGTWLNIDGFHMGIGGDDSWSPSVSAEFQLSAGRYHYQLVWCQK

[11] = HepG2 cell cytotoxicity, dose response, cytotoxicity control for Shn3 inhibitor project, CellTiter-Glo, cherry-picked (AID 624134); assay type: functional, cell-based
[12] = control 3'UTR Renilla luciferase suppression, dose response, counter-screen for Shn3 inhibitor project, cell-based, Clone20-Shn3RL, cherry-picked (AID 624133); assay type: functional
[13] = Vero E6 cell cytotoxicity, dose response, cytotoxicity control for non-replicating M. tuberculosis project, secondary assay (AID 492998); assay type: functional, VeroE6; conditions: Vero C1008
cells [14] = assay type: functional, cell-based
[15] = Shn3 3'UTR reporter inhibitors, dose response, cell-based, Clone20 osteoblasts, firefly luciferase, cherry-picked (AID 624132); assay type: functional;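 note: firefly luciferase luminescence from reporter carrying the Shn3 3'UTR in osteoblasts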
cells [16] = assay type: functional, cell-based; remark: listed apart in the source
[17] = THP-1 cell cytotoxicity, dose response, cytotoxicity control for non-replicating M. tuberculosis project (AID 489025); assay type: functional
[18] = cytotoxicity toward NIH3T3 fibroblasts, dose response, counter-screen, cell-based, ATP luminescence, mouse fibroblasts (AID 2010); assay type: functional;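 note: cells exposed to compound for about 90 hours before reading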
H9c2 = assay: cells; assay type: functional, cell-based; conditions: Rattus norvegicus, H9c2, Myocardium
[19] = Luminescence Cell-Based Dose Response HTS to Identify Inhibitors of 5'UTR Stem-Loop Driven Prion Protein mRNA Translation in H4 Neuroglioblastoma Cells. [Related pubchem assays: 1827 (Project Summary), 1813 (Primary HTS)]; assay type: functional
[20] = HepG2 cell cytotoxicity, dose response, cytotoxicity control for non-replicating M. tuberculosis project (AID 489018); assay type: functional; conditions: Mycobacterium tuberculosis
[21] = inhibitors of firefly luciferase expression or activity, dose response, H4 neuroglioma cells, luminescence (AID 1990); assay type: functional, cell-based
cells [22] = assay type: functional
[23] = inhibitors of SNCA 5'UTR-driven reporter translation, confirmation, H4 neuroglioma cells, luminescence (AID 1988); assay type: functional, cell-based

## Cc1ccccc1N1C(=O)/C(=C/NNC(=O)c2ccccc2O)C(=O)NC1=S
[1]
  EC50: 21.2 µM (active)
Nonstructural protein 1
  IC50: 13.4 µM (active)
[2]
  EC50: 23.5 µM (active)
SUMO-activating enzyme [3]
  IC50: 42.4 µM (active)
SUMO-activating enzyme [4]
  IC50: 25.7 µM (active)
[5]
  EC50: 30.8 µM (active)
Aminopeptidase N
  IC50: 11.5 µM (active)

## Clc1ccc2c(NCCNC3CCCCC3)ccnc2c1
[6]
  IC50: > 150 µM (active)

## O=C(COc1ccc(F)cc1Cl)Nc1nnc(-c2ccc3c(c2)OCCO3)o1
[7]
  EC50: 2.6 µM (active)

## CCc1ccccc1OCC(=O)Nc1nc(-c2cccnc2)cs1
Streptococcus
  EC50: 3.28 µM (active)
Vero
  CC50: > 25 µM (active)
[8]
  IC50: > 66.6 µM (inactive)
[9]
  EC50: 428 nM (active)
[10]
  EC50: 1.14 µM (active)
Beta-galactosidase
  IC50: > 66.6 µM (inactive)

## Cc1cc(C)n(-c2ccc3cccc(NS(C)(=O)=O)c3n2)n1
[11]
  AC50: 6.2 µM (active)
[12]
  AC50: 759 nM (active)
[13]
  CC50: 3.8 µM (active)
Cells [14]
  EC50: > 350 µM (not active)
[15]
  AC50: 1.32 µM (active)
Cells [16]
  EC50: > 350 µM (not active)
[17]
  CC50: 12.5 µM (active)
[18]
  EC50: 680 nM (active)
H9c2
  IC50: > 79 µM (inactive)
[19]
  EC50: 7.99 µM (active)
[20]
  CC50: 19.3 µM (active)
[10]
  EC50: 1.07 µM (active)
[21]
  EC50: 137 nM (active)
Cells [22]
  IC50: > 25 µM (active)
[23]
  EC50: 159 nM (active)
